Reference: US20050079186A1, “Therapeutic vaccine peptide complex for preventing and treating disorders in mammals” (ORIDAN, Inc., priority 2001, published 2005)

Experiments:
[1] = tested on: Leishmania; test: Parasitemy: direct exam of bone marrow smear and cultivation on NNN medium; assay type: in vivo, dog; parameters: key: − = absence; settings: vaccinated dogs, 2 months and 12 months after the infectious test
From the text: A parasitological exam was done from the sample taken directly from the candidate studied, a dog, for example.
A smear of a puncture of the bone marrow is made on a slide. This smear, fixed once by methanol, is stained with May-Grünwald-Geimsa and observed by an immersion microscope (x 1000).
Samples of the bone marrow are brought under cultivation in the biphase cultivation medium NNN (Novy and Mac Neal, 1904, 4. Infec. Dis., 1:1-30), of which RPMI 1640 supplemented with 20% decomplemented fetal calf serum constitutes the liquid phase. The blind subculturings were done every four to six days. The cultures are regularly observed in a photon microscope (×400) for 20 min.
The parasitemy was quantified as follows:
The infectious examination consists in intravenously injecting 106 treated promastigotes in metacyclic phase in the complement of a healthy dog and 5.106 peritoneal macrophages of a healthy dog, infected in vitro by the amastigotes.
The promastigotes and infected macrophages are diluted in sterile physiological serum for a final volume of 1.5 ml. This mixture is made just prior to injection.
To these analyses must be added the search for Leishmania by direct observation in a microscope and cultivation on NNN medium from bone marrow after the infectious test.

[2] = tested on: cell-mediated immunity of the Th1 type; test: Intra Dermo Reaction (IDR) test; assay type: in vivo, dog; settings: vaccinated dogs, 2 months after the infectious test; for IDR A16E: IDR done with peptide A16E; for IDR A16G: IDR done with peptide A16G; for IDR Leishmanines: read 48 h after intradermoinjection
Protocol: Evidence of the involvement of a cell-mediated immunity of the Th1 type:
Leishmanias of the promastigote forms are cultivated in the standard culture media. Parasites are harvested from the end of the exponential phase (6-7 days). The parasitic residue is washed three times by centrifugation (2500 g, […], 4° C.) in a PBS buffer.
After having verified the viability of the parasites using a vital stain (Trypan Blue), a suspension containing […] parasites per ml is inactivated in a PBS buffer containing 0.01% merthiolate (Pinelli et al., 1994, Infect. Immun., 62: 229-235). This constitutes the leishmanias for the intradermoreaction test (IDR).
Dogs are placed in lateral decubitus and a delicate and non-irritating shearing is done on the thoracic zone approximately 5 cm by 10 cm behind the elbow. Four circles 10 mm in diameter are marked using a felt-tip pen.
Into the center of the circles, 0.1 ml of solution is injected in an intradermo-injection. Two circles receive the solution of leishmanias and the 2 other circles receive the saline methiolated solution in the negative control. The reading of the Intra Dermo Reaction (IDR) is done 48 hours later using an allergologic gauge.
The test is considered positive if the mean of the two observed induration diameters is greater than or equal to 5 mm. The observation of an erythema without induration will be considered to be a negative test (Pinelli et al., 1994, Infect. Immun., 62: 229-235; Marty et al., 1994, Trans. Roy. Soc. Trop. Med. Hyg., 88, 658-659).
The IDRs can also be performed with a solution of peptides A16E and A16G or their derivatives and MDP, for example, in proportions of 10 μg of peptides for 20 μg of MDP.

[3] = tested on: peripheral blood mononuclear cells (PBMC); test: Lymphocyte (lymphoblastic) proliferation test; assay type: cell-based, dog; settings: vaccinated dogs; 2 months after the infectious test
Protocol: Next, a test is done on the lymphocyte proliferation.
The peripheral blood mononuclear cells (PBMC) of dogs are separated on the Ficoll gradient (density 1.078) by centrifugation at 800 g for 20 mn at ambient temperature. These cells are brought under cultivation on a plate having 96 wells at a concentration of 2.10^5 cells per well in the presence of 2 μg per ml of Concanavalin A (Sigma), 5 μg per ml of ES P (excretion—secretion promastigotes) or […] of supernatants of culture harvested in the stationary phase of growth of promastigotes (SP) per well, and in the absence of any additive in a volume of […] of the medium RPMI 1640 containing 5% decomplemented fetal calf serum, 2 mM of L-glutamine, 100 U of penicillin per ml, […] of streptomycin per ml. The optimal antigen and mitogen concentrations have been determined in prior experiments. […] The cells are harvested over a filter and the incorporation of the radioactivity is determined by counting in a scintillating liquid (β-counter). […]
The lymphocytary proliferation has also been estimated by visual readings in a photon microscope (−: negative; +/−: slight proliferation; +: little proliferation less than 5 points per microscopic field; ++: mean proliferation greater than 5 points; +++: strong proliferation).

[4] = tested on: IgG2 specific to the peptides A16E and/or A16G; test: ELISA detection of IgG2 specific to the peptides A16E and A16G; assay type: in vivo, dog; settings: vaccinated dogs, ELISA towards the corresponding peptides; for SEROLOGY ELISA IgG2 (positive/negative): 2 months and 12 months after the infectious test; for SEROLOGY ELISA IgG2 (optical density): cut off 0.300 OD
From the text: Detection of immunoglobulins of the isotype IgG2 of dogs, specifically of the peptides A16E and A16G and their derivatives:
This detection is done by the ELISA method according to the microtitration technique of Kweider et al (J. Immunol. 1987, 138, 299) using a bonded anti IgG2. For this method, the peptides are biotinylated prior to coating on microplates.
(§1) The biological analyses consist of: • biochemical analyses: urea, creatine, transaminases • hematological analyses: count, formula • serology leishmaniasis: quantitative anti-Leishmania immunofluorescence, dosage by the ELISA method of IgG2s specific to the peptides A16E and/or A16G • cellular response tests: IDR test (IntraDermoReaction) done with leishmanines and also with A16E and A16G peptides, dosage of NO and lymphoblastic proliferation.

[5] = tested on: Leishmania; test: Leishmaniasis serology: quantitative anti-Leishmania immunofluorescence; assay type: in vivo, dog; parameters: key: +: IF: Immunofluorescence (considered positive if the titer is ≧1/100); − = absence; settings: healthy dogs vaccinated with peptide(s) 50 μg + muramyl dipeptide 100 μg; analyses 2 months and 12 months after the infectious test
From the text: In parallel to the study of the specific activation of the T lymphocytes the Th1 type by intradermoreaction, dosage of the NO (NO is synthesized by monocytes activated by the cytokines of the T cells of the Th1 type) and lymphocyte proliferation, a serological monitoring by traditional immunofluorescence using strips coated with the promastigotes (serological reference method for canine leishmaniasis) is done.
as §1

Substance	Cultivation on NNN Medium [1]	PARASITEMY Direct Exam [1]	IDR A16E [2]	IDR A16G [2]	IDR Leishmanines [2]	Lymphoblastic Proliferation Test, reading in a photon microscope [3]	SEROLOGY ELISA IgG2 (positive/negative) [4]	SEROLOGY ELISA IgG2 (optical density) [4]	SEROLOGY IF Quantitative [5]
A-A-R-S-A-R-S-R-E-G-Y-S-L-T-D-E [A16E, 16 amino acid peptide specific to Leishmania]	−	−	+ (The Intra Dermo Reaction test is considered positive (+) if the induration is ≧5 mm 48 h. after intradermoinjection)	Limit	+ (The Intra Dermo Reaction test is considered positive (+) if the induration is ≧5 mm 48 h. after intradermoinjection)	+ (little proliferation less than 5 points per microscopic field)	+ (ELISA: Cut off = 0.300 OD (optical density))	0.700 OD	−
A-A-S-S-T-P-S-P-G-S-G-C-E-V-D-G [A16G, 16 amino acid peptide specific to Leishmania]	−	−	Limit	+ (The Intra Dermo Reaction test is considered positive (+) if the induration is ≧5 mm 48 h. after intradermoinjection)	+ (The Intra Dermo Reaction test is considered positive (+) if the induration is ≧5 mm 48 h. after intradermoinjection)	++ (mean proliferation greater than 5 points)	+ (ELISA: Cut off = 0.300 OD (optical density))	0.520 OD	−
